Laboratory results published in patent publication US20050209278A1, “Piperidinyl- and piperazinyl-sulfonylmethyl hydroxamic acids and their use as protease inhibitors” (priority 2002, published 2005).

How the values were obtained:
[1] = biological target: T1, MMP-2 (Homo sapiens, UniProt P08253); assay: In vitro MMP inhibition, Ki determination (fluorogenic substrate II); assay type: biochemical; conditions: value outside parentheses; read-out: MMP-2 Ki
T1 construct: made in house; host or cells: MMP-2-transfected p2AHT2 cells
T1 sequence (P08253 110-660): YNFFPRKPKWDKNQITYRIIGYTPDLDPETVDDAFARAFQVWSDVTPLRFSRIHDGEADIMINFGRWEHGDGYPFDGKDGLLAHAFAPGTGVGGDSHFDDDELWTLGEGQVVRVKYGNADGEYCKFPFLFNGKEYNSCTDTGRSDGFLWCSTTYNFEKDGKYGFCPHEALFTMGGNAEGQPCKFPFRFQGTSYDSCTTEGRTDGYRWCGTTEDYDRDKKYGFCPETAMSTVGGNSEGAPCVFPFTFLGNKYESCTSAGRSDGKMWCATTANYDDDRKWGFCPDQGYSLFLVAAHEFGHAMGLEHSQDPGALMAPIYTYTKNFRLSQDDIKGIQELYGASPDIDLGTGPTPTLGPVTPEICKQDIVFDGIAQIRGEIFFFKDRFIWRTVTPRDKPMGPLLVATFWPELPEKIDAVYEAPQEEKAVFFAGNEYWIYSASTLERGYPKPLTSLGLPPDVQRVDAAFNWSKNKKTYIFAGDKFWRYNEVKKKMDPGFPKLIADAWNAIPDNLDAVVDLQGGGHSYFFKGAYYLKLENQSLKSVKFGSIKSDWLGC

[2] = biological target: T2, MMP-14 (Homo sapiens, UniProt P50281); assay: as above; assay type: biochemical; conditions: value outside parentheses; read-out: MMP-14 Ki
T2 construct: The catalytic domain enzyme was expressed in E. coli inclusion bodies, solubilized in urea; made in house
How it was run: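 Apparent Ki was fitted with Morrison's equation from reaction rates at a single low enzyme level. Enzyme was APMA- or trypsin-activated refolded MMP-14 catalytic domain, buffered at pH 7.5 with 10 mM CaCl2.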

Structure (SMILES)	Ki [1] [nM]	Ki [2] [nM]
O=C(NO)C1(S(=O)(=O)N2CCN(c3ncc(-c4ccc(Cl)cc4)s3)CC2)CCOCC1 [Example 343]	0.113	34.9
O=C(NO)C1(S(=O)(=O)N2CCN(c3ccc(OCCCC(F)(F)F)cc3)CC2)CC(O)C1 (stereo not drawn) [Example 342]	16.9	> 10000
O=C(NO)C1(S(=O)(=O)N2CCC(c3ccc(OCC(F)(F)C(F)(F)F)cc3)CC2)CCOCC1 [Example 330]	1.18	> 10000
O=C(NO)C1(S(=O)(=O)N2CCC(c3ccc(OC(F)(F)C(F)(F)F)cc3)CC2)CCOCC1 [Example 349]	2.12	> 10000
O=C(NO)C1(S(=O)(=O)N2CCN(c3ncc(-c4ccc(F)cc4F)s3)CC2)CCOCC1 [Example 359]	0.266	42.9
O=C(NO)C1(S(=O)(=O)N2CCN(c3ccc(CCC(F)(F)C(F)(F)F)cc3)CC2)CCN(C2CC2)CC1 [Example 335]	0.618	9290
CC(C)c1ccc(-c2cnc(N3CCN(S(=O)(=O)C4(C(=O)NO)CCOCC4)CC3)s2)cc1 [Example 366]	0.264	50.3
O=C(NO)C1(S(=O)(=O)N2CCN(c3ccc(CCCC(F)(F)F)cc3)CC2)CCOCC1 [Example 320]	0.842	3930
O=C(O)c1ccc(N2CCN(S(=O)(=O)C3(C(=O)NO)CCOCC3)CC2)cc1 [Example 352]	2130	> 10000
CCCCCc1ccc(-c2cnc(N3CCN(S(=O)(=O)C4(C(=O)NO)CCOCC4)CC3)s2)cc1 [Example 380]	1.39	3210
O=C(NO)C1(S(=O)(=O)N2CCN(c3ncc(-c4ccc(Cl)c(Cl)c4)s3)CC2)CCOCC1 [Example 369]	0.879	343
O=C(NO)C1(S(=O)(=O)N2CCN(c3ccc(-c4ccccc4F)cn3)CC2)CCOCC1 [Example 317]	0.55	653
CCCCc1ccc(C2CCN(S(=O)(=O)C3(C(=O)NO)CCN(CC)CC3)CC2)nc1 [Example 396]	2.32	7650
COCCN1CCC(C(=O)NO)(S(=O)(=O)N2CCN(c3ncccn3)CC2)CC1 [Example 332]	190	> 10000
NC(=O)c1ccccc1-c1cnc(N2CCN(S(=O)(=O)C3(C(=O)NO)CCOCC3)CC2)s1 [Example 383]	1230	> 10000
O=C(NO)C1(S(=O)(=O)N2CCN(c3ccc(-c4ccc(Cl)c(Cl)c4)cc3)CC2)CCOCC1 [Example 328]	3.58	2690
O=C(NO)C1(S(=O)(=O)N2CCC(c3ccc(-c4cccs4)cn3)CC2)CCOCC1 [Example 394]	1.8	931

Structure (SMILES)	Ki [1] [nM]	Ki [2] [nM]
O=C(NO)C1(S(=O)(=O)N2CCN(c3ncc(-c4ccc(F)cc4)s3)CC2)CCOCC1 [Example 345]	0.169	38.1
O=C(NO)C1(S(=O)(=O)N2CCN(c3cccc(OCCCC(F)(F)F)c3)CC2)CCOCC1 [Example 355]	38.3	3440
O=C(NO)C1(S(=O)(=O)N2CCN(c3ccc(CCCC(F)(F)F)cc3F)CC2)CCOCC1 [Example 386]	4.88	> 10000
O=C(NO)C1(S(=O)(=O)N2CCN(c3ncc(-c4ccc5c(c4)OCO5)s3)CC2)CCOCC1 [Example 362]	0.333	150
CCc1ccc(-c2cnc(N3CCN(S(=O)(=O)C4(C(=O)NO)CCOCC4)CC3)s2)cc1 [Example 381]	0.209	54.1
O=C(NO)C1(S(=O)(=O)N2CCN(c3cnn(-c4ccccc4)c(=O)c3)CC2)CCOCC1 [Example 322]	7870	> 10000
O=C(NO)C1(S(=O)(=O)N2CCC(c3ccc(OCC(F)(F)C(F)F)cc3)CC2)CCN(CCN2CCOCC2)CC1 [Example 385]	0.573	2930
CCC=C1CCN(S(=O)(=O)C2(C(=O)NO)CCOCC2)CC1 [Example 374]	18.6	195
CCCCc1cnc(N2CCN(S(=O)(=O)C3(C(=O)NO)CCN(CCOC)CC3)CC2)nc1 [Example 334]	5.99	5770
O=C(NO)C1(S(=O)(=O)N2CCN(c3ccc(OCC(F)(F)C(F)F)cc3)CC2)CCOCC1 [Example 336]	0.606	2520
O=C(NO)C1(S(=O)(=O)N2CCN(c3ncc(-c4ccc(-c5ccccc5)cc4)s3)CC2)CCOCC1 [Example 360]	0.395	216
O=C(NO)C1(S(=O)(=O)N2CCN(c3ncc(-c4ccc(C(F)(F)F)cc4)s3)CC2)CCOCC1 [Example 346]	0.215	114
O=C(NO)C1(S(=O)(=O)N2CCC(c3ccc(-c4ccc(C(F)(F)F)cc4)cn3)CC2)CCOCC1 [Example 395]	7.17	1760
O=C(NO)C1(S(=O)(=O)N2CCC(COCc3ccccc3)CC2)CCOCC1 [Example 373]	6.12	79.7
O=C(NO)C1(S(=O)(=O)N2CCN(c3ccc(OCC4CC4)c(F)c3)CC2)CCOCC1 [Example 333]	0.58	2360
CCCCOc1cccc(N2CCN(S(=O)(=O)C3(C(=O)NO)CCOCC3)CC2)c1 [Example 354]	89.4	4140
